Patent publication US7312188B2, “Peptide derivatives having β-secretase inhibitory activity” (priority 2003, dated 2007)
Numbered stars: 1 amine (or outer) side, 2 acyl side, 3 side chain; on linkers, the order of the positions; unused ones are H or OH. Square brackets hold non-standard residues; d marks the D form. Peptide text beside a SMILES is read from it. * marks the point of attachment. β3hPhe(2R-OH) = O=C([C@H](O)[C@H](Cc1ccccc1)N[*:1])[*:2]; X3 = CC(C)C[C@H](N[*:1])[C@@H](O)C(=O)[*:2]; 4Amb = NCc1ccc(C(=O)O)cc1; 2Abz = Nc1ccccc1C(=O)O; Dap = NC[C@H](N)C(=O)O; X4 = CCOC(=O)C(=O)*

Target: T1, recombinant human BACE-1 (rhBACE-1) (Homo sapiens, UniProt P56817)
T1 construct: expressed as only an extracellular region (amino acid 1-460 residues) of recombinant human β-secretase; His tag (C); purchased R&D systems (Minneapolis, Minn.); host or cells: murine myeloma cell line NS0
Test: BACE1 inhibitory activity, reverse phase HPLC quantitation of N-terminal fragment of fluorogenic substrate
Assay type: biochemical
Conditions: 1 μL of inhibitor solution in DMSO (100 μM) in 50 μL reaction; MES buffer pH 5.0; 37° C., 60 minutes
From the text: Experiment Regarding Measurement of BACE1 Inhibitory Activity
Enzyme Used in Measurement
As an enzyme having β-secretase activity, recombinant human BACE-1 (rhBACE-1) purchased from R&D systems (Minneapolis, Minn.) was used. rhBACE-1 is expressed as only an extracellular region (amino acid 1-460 residues) of recombinant human β-secretase, with a His tag at its carboxyl terminal in murine myeloma cell line, NS0. Purified secreted rhBACE1 is a mixture of a pro entity (about 75 kDa) and a mature entity (about 72 kDa).
Assessment of Enzyme Inhibitory Activity
Enzyme inhibitory activity of an inhibitor was assessed by quantitating an N-terminal fragment produced aftercleaving the substrate with BACE1 by reverse HPLC using (7-methoxycoumarin-4-yl)acetyl-[…]2,4-dinitrophenyl)-Arg-Arg-NH2 purchased from Peptide Institute (Osaka, Japan) as a substrate for BACE1. To 40 μL of 62.5 mM 2-(N-morpholino)ethansulfonic acid (MES)-CH3COOH—NaOH buffer (pH 5.0), were added 1 μL of a solution of an inhibitor diluted with DMSO (100 μM), 4 μL of rhBACE-1 (6.25 ng/μL), and 5 μL of an aqueous solution (50% DMSO) of 250 μM substrate (7-methoxycoumarin-4-yl)acetyl-[…]2,4-dinitrophenyl)-Arg-Arg-NH2 to initiate an enzyme reaction. After incubation at 37° C. for 60 minutes, 20 μL of 20% trichloroacetic acid was added to stop the reaction. And, inhibition % was calculated by measuring a fluorescent intensity of the N-terminal fragment (Ex, 328 nm; Em, 393 nm) using reverse phase HPLC (linear gradient of MeCN in aqueous TFA; flow rate, 1.0 mL/min).
BACE1 Inhibitory Activity
Enzyme inhibitory activity of an inhibitor was assessed by quantitating a N-terminal fragment produced after cleavage of a substrate with BACE1 by reverse phase HPLC using (7-methoxycoumarin-4-yl)acetyl-[…]2,4-dinitrophenyl)-Arg-Arg-NH2 purchased from Peptide Institute (Osaka, Japan) as a substrate for BACE1. Recombinant human BACE-1 purchased from R&D systems (Minneapolis, Minn.) was used. To 40 μL of 62.5 mM 2-(N-morpholino)ethansulfonic acid (MES)-CH3COOH—NaOH buffer (pH 5.0), were added 1 μL of a solution of an inhibitor diluted with DMSO (100 μM), 4 μL of BACE1 (6.25 ng/μL), and 5 μL of an aqueous solution (50% DMSO) of 250 μM substrate (7-methoxycoumarin-4-yl)acetyl-[…]2,4-dinitrophenyl)-Arg-Arg-NH2 to initiate an enzyme reaction. After incubation at 37° C. for 60 minutes, 20 μL of 20% trichloroacetic acid was added to stop a reaction. Inhibition % was calculated by measuring a fluorescent intensity of the N-terminal fragment (Ex, 328 nm; Em, 393 nm) using reverse phase HPLC (linear gradient of MeCN in aqueous TFA; flow rate, 1.0 mL/min).

T1 sequence (P56817 22-460 limits assumed): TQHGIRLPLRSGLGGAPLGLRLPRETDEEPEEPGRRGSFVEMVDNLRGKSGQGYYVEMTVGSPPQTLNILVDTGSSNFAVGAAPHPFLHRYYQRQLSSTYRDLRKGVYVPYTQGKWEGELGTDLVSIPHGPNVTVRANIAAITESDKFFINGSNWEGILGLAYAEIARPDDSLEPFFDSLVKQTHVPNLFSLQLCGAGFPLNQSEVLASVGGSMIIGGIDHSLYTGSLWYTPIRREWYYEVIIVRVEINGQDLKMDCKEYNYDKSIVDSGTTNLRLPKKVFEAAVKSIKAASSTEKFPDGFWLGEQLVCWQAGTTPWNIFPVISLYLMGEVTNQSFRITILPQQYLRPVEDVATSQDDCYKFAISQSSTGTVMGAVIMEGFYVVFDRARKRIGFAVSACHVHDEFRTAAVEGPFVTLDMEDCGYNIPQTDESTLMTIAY

Molecule `CC(C)C[C@H](NC(=O)[C@@H](NC(=O)[C@@H](N)CCC(=O)O)C(C)C)C(=O)N[C@@H](Cc1ccccc1)[C@@H](O)C(=O)Nc1cc(C(N)=O)cc(C(=O)O)c1` [Example 179] has an inhibition at 2 µM of 83.7%.

`CC(C)[C@H](NC(=O)[C@@H](N)CCC(=O)O)C(=O)N[C@@H](Cc1cccc2ccccc12)C(=O)N[C@@H](Cc1ccccc1)[C@@H](O)C(=O)Nc1cccc(C(=O)O)c1` [Example 165] showed an inhibition at 2 µM of 73.7%.

For `CC(C)C[C@H](NC(=O)[C@@H](NC(=O)C(N)CNC(=O)c1ccccc1O)C(C)C)C(=O)N[C@@H](Cc1ccccc1)[C@@H](O)C(=O)Nc1cccc(C(=O)O)c1` (some centres unmarked) [Example 146], the inhibition at 100 µM (stock) was 74.7%.

`COc1cc(NC(=O)[C@H](O)[C@H](Cc2ccccc2)NC(=O)[C@H](CC(C)C)NC(=O)[C@@H](NC(=O)[C@@H](N)CCC(=O)O)C(C)C)cc(OC)c1` [Example 129] was tested, and the inhibition at 2 µM was 61%.

`CCOC(=O)C(=O)NC[C@H](N)C(=O)N[C@H](C(=O)N[C@@H](CC(C)C)C(=O)N[C@@H](Cc1ccccc1)[C@@H](O)C(=O)N[C@@H](CC(=O)O)C(=O)N[C@@H](C)C(=O)N[C@@H](CCC(=O)O)C(=O)O)C(C)C` [Example 95] (H-[Dap](X4)VL[β3hPhe(2R-OH)]DAE-OH) was tested, and the inhibition at 2 µM was 61.7%.

“H-Glu-Val-Leu-Pns-Asp-Gly-Glu-Phe-OH (H-EVL[β3hPhe(2R-OH)]DGEF-OH; SMILES CC(C)C[C@H](NC(=O)[C@@H](NC(=O)[C@@H](N)CCC(=O)O)C(C)C)C(=O)N[C@@H](Cc1ccccc1)[C@@H](O)C(=O)N[C@@H](CC(=O)O)C(=O)NCC(=O)N[C@@H](CCC(=O)O)C(=O)N[C@@H](Cc1ccccc1)C(=O)O) [Example 43]” was tested, and the “Activity (BACE1 inhibition %)” value was 81.23%.

In the case of `CC(C)C[C@H](NC(=O)[C@@H](NC(=O)[C@@H](N)CNC(=O)c1cc(=O)[nH]c(=O)[nH]1)C(C)C)C(=O)N[C@@H](Cc1ccccc1)[C@@H](O)C(=O)Nc1cccc(C(=O)O)c1` [Example 142], the inhibition at 2 µM is reported as 89.8%.

`COC(=O)c1cc(N)cc(C(=O)NC[C@H](N)C(=O)N[C@H](C(=O)N[C@@H](CC(C)C)C(=O)N[C@@H](Cc2ccccc2)[C@@H](O)C(=O)Nc2cccc(C(=O)O)c2)C(C)C)c1` [Example 181] was tested, and the inhibition at 100 µM (stock) was 82.5%.

Work on `CC(C)C[C@H](NC(=O)[C@@H](NC(=O)[C@@H](N)CCC(=O)O)C(C)C)C(=O)N[C@@H](Cc1ccccc1)[C@@H](O)C(=O)N[C@H](CC(=O)O)C(=O)O` [Example 100] (H-EVL[β3hPhe(2R-OH)][dD]-OH) yielded an inhibition at 2 µM of 56.9%.

For `CC(C)C[C@H](NC(=O)[C@@H](NC(=O)[C@@H](N)CCC(=O)O)C(C)C)C(=O)N[C@@H](Cc1ccccc1)[C@@H](O)C(=O)Nc1cc(Cl)c(OCC(=O)O)c(Cl)c1` [Example 163], the inhibition at 2 µM was 88.3%.

With `CC(C)C[C@H](NC(=O)[C@@H](NC(=O)[C@@H](N)CCC(=O)O)C(C)C)C(=O)N[C@@H](CC(C)C)[C@@H](O)C(=O)N[C@@H](CC(=O)O)C(=O)N[C@@H](C)C(=O)N[C@@H](CCC(=O)O)C(=O)N[C@@H](Cc1ccccc1)C(=O)O` [Example 97] (H-EVL[X3]DAEF-OH) the inhibition at 2 µM was 59.1%.

With `CC(C)C[C@H](NC(=O)[C@@H](NC(=O)[C@@H](N)CCC(=O)O)C(C)C)C(=O)N[C@@H](Cc1ccccc1)[C@@H](O)C(=O)N[C@@H](CC(=O)O)C(=O)N[C@@H](C)C(=O)N1CCCCC1C(=O)O` (single isomer, unassigned) [Example 94] the inhibition at 2 µM was 61.8%.

With `CC(C)C[C@H](NC(=O)[C@@H](NC(=O)[C@@H](N)CNC(=O)C(=O)O)C(C)C)C(=O)N[C@@H](CC1CCCCC1)[C@@H](O)C(=O)Nc1cccc(C(=O)O)c1` [Example 126] the inhibition at 2 µM was 98.9%.

For `CC(C)C[C@H](NC(=O)[C@@H](NC(=O)[C@@H](N)CCC(=O)O)C(C)C)C(=O)N[C@@H](Cc1ccccc1)[C@@H](O)C(=O)Nc1cccc(C(=O)OCC(F)(F)F)c1` [Example 138], the inhibition at 2 µM was 59.6%.

`CC(C)C[C@H](NC(=O)[C@@H](NC(=O)[C@@H](N)CCC(=O)O)C(C)C)C(=O)N[C@@H](Cc1ccccc1)[C@@H](O)C(=O)N[C@@H](CC(=O)O)C(=O)Nc1ccccc1C(=O)O` [Example 78] (H-EVL[β3hPhe(2R-OH)]D[2Abz]-OH) was tested, and the inhibition at 100 µM (stock) was 85.8%.

`CC(C)C[C@H](NC(=O)[C@@H](NC(=O)[C@@H](N)CNC(=O)c1cccc(O)c1O)C(C)C)C(=O)N[C@@H](Cc1ccccc1)[C@@H](O)C(=O)Nc1cccc(C(=O)O)c1` [Example 172] showed an inhibition at 2 µM of 89.5%.

Molecule `CCOC(=O)COc1c(Cl)cc(NC(=O)[C@H](O)[C@H](Cc2ccccc2)NC(=O)[C@H](CC(C)C)NC(=O)[C@@H](NC(=O)[C@@H](N)CCC(=O)O)C(C)C)cc1Cl` [Example 158] has an inhibition at 2 µM of 66.1%.

Molecule `CC(C)C[C@H](NC(=O)[C@@H](NC(=O)[C@@H](N)CNC(=O)c1cccc(O)c1)C(C)C)C(=O)N[C@@H](Cc1ccccc1)[C@@H](O)C(=O)Nc1cccc(C(=O)O)c1` [Example 150] has an inhibition at 2 µM of 90.8%.

“β-ODap-Val-Leu-Pns-Asp-Ala-Gly-Phe-OH ({β‑ODap}-VL[β3hPhe(2R-OH)]DAGF-OH) [Example 63]” was tested, and the “Activity (BACE1 inhibition %)” value was 96.66%.

`CC(C)C[C@H](NC(=O)[C@@H](NC(=O)[C@@H](N)CCC(=O)O)C(C)C)C(=O)N[C@@H](Cc1ccccc1)[C@@H](O)C(=O)NCc1ccc(Cl)c(Cl)c1` [Example 162] showed an inhibition at 2 µM of 71.5%.

`CC(C)C[C@H](NC(=O)[C@@H](NC(=O)[C@@H](N)CCC(=O)O)c1ccccc1)C(=O)N[C@@H](Cc1ccccc1)[C@@H](O)C(=O)Nc1cccc(C(=O)O)c1` [Example 169] gave an inhibition at 2 µM of 61.6%.

In the case of “H-Glu-Val-Leu-Pns-Ala-Ala-Glu-Phe-OH (H-EVL[β3hPhe(2R-OH)]AAEF-OH; SMILES CC(C)C[C@H](NC(=O)[C@@H](NC(=O)[C@@H](N)CCC(=O)O)C(C)C)C(=O)N[C@@H](Cc1ccccc1)[C@@H](O)C(=O)N[C@@H](C)C(=O)N[C@@H](C)C(=O)N[C@@H](CCC(=O)O)C(=O)N[C@@H](Cc1ccccc1)C(=O)O) [Example 13]”, the “Activity (BACE1 inhibition %)” value is reported as 53.71%.

`CC(C)C[C@H](NC(=O)[C@@H](NC(=O)[C@@H](N)CCC(=O)O)C(C)C)C(=O)N[C@@H](Cc1ccccc1)[C@@H](O)C(=O)N[C@@H](CC(=O)O)C(=O)NCc1ccc(C(=O)O)cc1` [Example 103] (H-EVL[β3hPhe(2R-OH)]D[4Amb]-OH) was tested, and the inhibition at 2 µM was 54.6%.

Work on `CC(C)C[C@H](NC(=O)[C@@H](NC(=O)[C@@H](N)CNC(=O)c1cc(N)cc(C(=O)O)c1)C(C)C)C(=O)N[C@@H](Cc1ccccc1)[C@@H](O)C(=O)Nc1cccc(C(N)=O)c1` [Example 171] yielded an inhibition at 2 µM of 91.8%.

For `Cc1c(O)cccc1C(=O)NC[C@H](N)C(=O)N[C@H](C(=O)N[C@@H](CC(C)C)C(=O)N[C@@H](Cc1ccccc1)[C@@H](O)C(=O)Nc1cccc(C(=O)O)c1)C(C)C` [Example 145], the inhibition at 2 µM was 50.5%.

With `CC(C)[C@H](NC(=O)[C@@H](N)CNC(=O)c1[nH]c(=O)[nH]c(=O)c1F)C(=O)N[C@@H](CC1CCCCC1)C(=O)N[C@@H](Cc1ccccc1)[C@@H](O)C(=O)Nc1cccc(-c2nnn[nH]2)c1` [Example 189] the inhibition at 100 µM (stock) was 100%.

In the case of “H-Glu-Val-Leu-Pns-Asp-Ala-Glu-OH [Example 32]”, the “Activity (BACE1 inhibition %)” value is reported as 71.60%.

With `CC(C)[C@H](NC(=O)[C@@H](N)CNC(=O)c1nnn[nH]1)C(=O)N[C@@H](CC1CCCCC1)C(=O)N[C@@H](Cc1ccccc1)[C@@H](O)C(=O)Nc1cc(C(=O)O)cc(C(=O)O)c1` [Example 135] the inhibition at 2 µM was 99.8%.

`CCOC(=O)c1cccc(NC(=O)c2cccc(NC(=O)[C@H](O)[C@H](Cc3ccccc3)NC(=O)[C@H](CC(C)C)NC(=O)[C@@H](NC(=O)[C@@H](N)CCC(=O)O)C(C)C)c2)c1` [Example 72] was tested, and the inhibition at 2 µM was 95%.
